Assays:
[1] = system: hTel22; experiment: ESI mass spectrometry of hTel22 with excess ligand; assay type: binding, human; details: free DNA present even in excess ligand
Protocol: Electrospray Ionization Mass Spectrometry. ESI-MS experiments were carried out on a Bruker MicrOTOFQ mass spectrometer. Data acquisition was set to operate in negative ion mode. All experiments were performed in 50 mM ammonium acetate buffer containing 20% HPLC grade methanol and adjusted with 1 N KOH solution to reach pH of 7.0. The WT hTel 22-mer G-quadruplex sample was prepared at a concentration of approximately 10 μM in the ammonium acetate buffer and was exhaustedly dialyzed. Stock solutions of DMZ and Triazene-1 were prepared in the final dialysate buffer at concentration as high as 300 μM. The ESI-MS samples were prepared by mixing the DNA and ligand stock solutions to yield a mixture containing excess of each ligand per equivalence of DNA. The MS capillary voltage was set to +3500 V, dry N2 gas flow was adjusted to 0.5 L/min at 110° C., and the G-quadruplex/ligand samples were directly infused into the MS by using a kD Scientific syringe pump set to a flow rate of 200 μL/hour. Data processing was performed by using Bruker Daltonics Data Analysis program.

[2] = system: c-MYC protein in MDA-MB-231 cells; experiment: Western Blot of c-MYC protein expression; assay type: cell-based, human; details: 5.45 or 27.25 μM, 2, 6 or 24 hours
Protocol: FIG. 7. Western Blot analysis of c-MYC protein expression in MDA-MB-231 after treated with TMPyP4 and DMZ9. A, MDA-MB-231 cells were treated with DMSO vehicle, DMZ9 (5.45 […] and 27.25 μM), TMPyP4 (22.3 μM and 111.5 μM) for 2 h, 6 h and 24 h. Total protein was extracted and analyzed by Western Blot with 1:1,000 C-MYC (Cell Signaling) and 1:10,000 HRP-linked anti-rabbit IgG (Cell Signaling). * Observed high level of cytotoxicity and low protein levels. B and C, the graphs show the relative density as compared with the DMSO vehicle. Scanned images were analyzed using image J software.
Western Blot Analysis of c-MYC Protein Expression. C-MYC protein levels in MDA-MB-231 cells were evaluated by performing Western Blot. MDA-MB-231 breast cancer cells were treated with 22.3 or 111.5 μM TMPyP4 and 5.45 or 27.25 μM DMZ9 for 2, 6 or 24 hours.

[3] = system: c-kit1; experiment: NMM displacement assay; assay type: binding; details: NMM 1 μM, ligand 0-200 μM
Protocol: Displacement assays with the G-quadruplex binder, NMM. In these assays, the triazene ligand was used at various concentrations: 0, 5, 10, 20, 50, 100, and 200 μM; and the DNA concentration was kept at 1 μM, whereas the concentration of NMM was 1 μM. The experiments were performed in 50 mM Tris-HCl buffer (pH 7.5) in the presence of 50 mM KCl. The excitation wavelength used for NMM was 400 nm and the emission was monitored between 550 and 700 nm (slit width=5 nm, scan speed=600 nm/min, averaging time=0.1 sec, data interval=1 nm, PMT detector voltage=600 V, measurement temperature=20° C.). The sample was initially heated to 95° C. and kept at this temperature for 5 min without ligand or NMM and then cooled down to room temperature for 15 min. Subsequently, the triazene ligand was added to the DNA and incubated for ˜12 h.

[4] = system: 27mer WT bcl-2; experiment: CD titration with bcl-2 G-quadruplex; assay type: binding; details: K+ Tris buffer
Protocol: Circular Dichroism (CD). CD titration experiments were performed with an Olis DSM-20 spectropolarimeter (Bogart, Ga.). All measurements were done at 25° C. using a 1 cm quartz cuvette and covering a spectral range of 220-420 nm. […] Stock solutions of the ligand were added in small amount to reach a molar ratio of 1:1, 3:1, 6:1, and 10:1 of ligand per equivalence of DNA.

Structure (SMILES): N=C(N)c1ccc(NN=Nc2ccccc2)cc1 [DMZ1]
- binding affinity in words [1]: low binding affinity

Structure (SMILES): N=C(N)c1ccc(N=NNc2cccc(C#Cc3ccc(F)cc3)c2)cc1 [DMZ9]
- c-MYC protein expression [2]: caused a decrease in the c-MYC protein expression

Structure (SMILES): N=C(N)c1ccc(/N=N/Nc2ccc(C(=N)N)cc2)cc1 [DMZ, Diminazene aceturate, reference compound]
- competition with NMM for c-kit1 binding [3]: could indeed compete with NMM for c-kit1 binding
- CD signal of G-quadruplex upon complexation [4]: dramatically decreased

Reference: patent US20190209548A1, “LINKED DIARYL COMPOUNDS WITH ANTICANCER PROPERTIES AND METHODS OF USING THE SAME” (University of Maryland, College Park, priority 2014, published 2019)
